Results published in ChEMBL document CHEMBL1201861, “Genomics of Drug Sensitity in Cancer screening data, Wellcome Trust Sanger Institute”.
pIC50: −log10 of the molar value.

Legend:
SAS = assay: cells; format: functional, cell-based, Homo sapiens; details: Homo sapiens, SAS;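 also: growth inhibition of SAS cells, read out with a cell viability assay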
Description: SANGER: Inhibition of human SAS cell growth in a cell viability assay.

TUR = assay: cells; format: functional, cell-based, Homo sapiens; details: Homo sapiens, TUR;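 also: growth inhibition of human TUR cells, read out with a cell viability assay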
Description: SANGER: Inhibition of human TUR cell growth in a cell viability assay.

A-431 = assay: cells; format: functional, cell-based, Homo sapiens; details: Homo sapiens, A-431;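 also: growth inhibition of A-431 cells, determined with a cell viability read-out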
Description: SANGER: Inhibition of human A431 cell growth in a cell viability assay.

SW1783 = assay: cells; format: functional, cell-based, Homo sapiens; details: Homo sapiens, SW1783
Description: SANGER: Inhibition of human SW1783 cell growth in a cell viability assay.

MKN-7 = assay: cells; format: functional, cell-based, Homo sapiens; details: Homo sapiens, MKN-7;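 also: growth inhibition of MKN-7 cells, read out with a cell viability assay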
Description: SANGER: Inhibition of human MKN7 cell growth in a cell viability assay.

HGC-27 = assay: cells; format: functional, cell-based, Homo sapiens; details: Homo sapiens, HGC-27;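 also: growth inhibition of human HGC-27 cells, read out in a cell viability assay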
Description: SANGER: Inhibition of human HGC-27 cell growth in a cell viability assay.

BC1 cell line = assay: SANGER: Inhibition of human BC-1 cell growth in a cell viability assay.; format: functional, cell-based; details: Homo sapiens, BC1
ChaGo-K-1 = assay: cells; format: functional, cell-based, Homo sapiens; details: Homo sapiens, ChaGo-K-1;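 also: growth inhibition of ChaGo-K-1 cells, read out with a cell viability assay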
Description: SANGER: Inhibition of human ChaGo-K-1 cell growth in a cell viability assay.

HuP-T3 = assay: cells; format: functional, cell-based, Homo sapiens; details: Homo sapiens, HuP-T3;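 also: HuP-T3 cell growth inhibition, read out with a cell viability assay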
Description: SANGER: Inhibition of human HuP-T3 cell growth in a cell viability assay.

VMRC-RCZ = assay: cells; format: functional, cell-based, Homo sapiens; details: Homo sapiens, VMRC-RCZ
Description: SANGER: Inhibition of human VMRC-RCZ cell growth in a cell viability assay.

UMUC3 = assay: cells; format: functional, cell-based, Homo sapiens; details: Homo sapiens, UMUC3;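 also: growth inhibition of human UM-UC-3 cells, read out with a cell viability assay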
Description: SANGER: Inhibition of human UM-UC-3 cell growth in a cell viability assay.

SW-620 = assay: cells; format: functional, cell-based, Homo sapiens; details: Homo sapiens, SW-620;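 also: growth inhibition of human SW-620 cells, measured by a cell viability assay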
Description: SANGER: Inhibition of human SW620 cell growth in a cell viability assay.

HuCCT-1 = assay: cells; format: functional, cell-based, Homo sapiens, HuCCT1; details: Homo sapiens, HuCCT-1;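 also: growth inhibition of HuCCT-1 cells, read out by a cell viability assay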
Description: SANGER: Inhibition of human HuCCT1 cell growth in a cell viability assay.

T47D = assay: cells; format: functional, cell-based, Homo sapiens; details: Homo sapiens, T47D;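 also: growth inhibition of human T47D cells, measured with a cell viability assay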
Description: SANGER: Inhibition of human T47D cell growth in a cell viability assay.

YAPC = assay: cells; format: functional, cell-based, Homo sapiens; details: Homo sapiens, YAPC;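 also: growth inhibition of YAPC cells, measured with a cell viability assay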
Description: SANGER: Inhibition of human YAPC cell growth in a cell viability assay.

GCT = assay: cells; format: functional, cell-based, Homo sapiens; details: Homo sapiens, GCT;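 also: GCT cell line proliferation inhibition, read out with a cell viability assay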
Description: SANGER: Inhibition of human GCT cell growth in a cell viability assay.

SK-LU-1 = assay: cells; format: functional, cell-based, Homo sapiens; details: Homo sapiens, SK-LU-1;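 also: cell viability assay measuring growth inhibition of human SK-LU-1 cells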
Description: SANGER: Inhibition of human SK-LU-1 cell growth in a cell viability assay.

SW780 = assay: cells; format: functional, cell-based, Homo sapiens; details: Homo sapiens, SW780;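 also: growth inhibition of the cells, read out with a cell viability assay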
Description: SANGER: Inhibition of human SW780 cell growth in a cell viability assay.

RCM-1 = assay: cells; format: functional, cell-based, Homo sapiens; details: Homo sapiens, RCM-1;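 also: growth inhibition of the RCM-1 line, determined with a cell viability readout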
Description: SANGER: Inhibition of human RCM-1 cell growth in a cell viability assay.

NY = assay: cells; format: functional, cell-based, Homo sapiens; details: Homo sapiens, NY
Description: SANGER: Inhibition of human NY cell growth in a cell viability assay.

NCI-H520 = assay: cells; format: functional, cell-based, Homo sapiens; details: Homo sapiens, NCI-H520;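 also: growth inhibition of NCI-H520 cells, measured by a cell viability assay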
Description: SANGER: Inhibition of human NCI-H520 cell growth in a cell viability assay.

NCI-H187 = assay: cells; format: functional, cell-based, Homo sapiens; details: Homo sapiens, NCI-H187;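 also: growth inhibition of NCI-H187 cells, read out as cell viability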
Description: SANGER: Inhibition of human NCI-H187 cell growth in a cell viability assay.

SR = assay: cells; format: functional, cell-based, Homo sapiens; details: Homo sapiens, SR
Description: SANGER: Inhibition of human SR cell growth in a cell viability assay.

CESS = assay: SANGER: Inhibition of human CESS cell growth in a cell viability assay.; format: functional, cell-based; details: Homo sapiens, CESS
SW756 = assay: cells; format: functional, cell-based, Homo sapiens; details: Homo sapiens, SW756;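 also: growth inhibition of human SW756 cells, read out with a cell viability assay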
Description: SANGER: Inhibition of human SW756 cell growth in a cell viability assay.

BOKU = assay: cells; format: functional, cell-based, Homo sapiens; details: Homo sapiens, BOKU;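 also: growth inhibition of the human BOKU cell line, read out by a cell viability assay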
Description: SANGER: Inhibition of human BOKU cell growth in a cell viability assay.

KYSE-270 = assay: cells; format: functional, cell-based, Homo sapiens; details: Homo sapiens, KYSE-270;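 also: cell growth inhibition measured with a viability assay in the human KYSE-270 line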
Description: SANGER: Inhibition of human KYSE-270 cell growth in a cell viability assay.

SK-MES-1 = assay: cells; format: functional, cell-based, Homo sapiens; details: Homo sapiens, SK-MES-1;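 also: growth inhibition of human SK-MES-1 cells, read out with a cell viability assay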
Description: SANGER: Inhibition of human SK-MES-1 cell growth in a cell viability assay.

CMK = assay: cells; format: functional, cell-based, Homo sapiens; details: Homo sapiens, CMK;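 also: growth inhibition of CMK cells, read out as cell viability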
Description: SANGER: Inhibition of human CMK cell growth in a cell viability assay.

MEL-HO = assay: cells; format: functional, cell-based, Homo sapiens; details: Homo sapiens, MEL-HO
Description: SANGER: Inhibition of human MEL-HO cell growth in a cell viability assay.

THP-1 = assay: cells; format: functional, cell-based, Homo sapiens; details: Homo sapiens, THP-1;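 also: growth inhibition of THP-1 cells, read out via a cell viability assay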
Description: SANGER: Inhibition of human THP-1 cell growth in a cell viability assay.

HCC1954 = assay: cells; format: functional, cell-based, Homo sapiens; details: Homo sapiens, HCC1954;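 also: growth inhibition of human HCC1954 cells, read out with a cell viability assay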
Description: SANGER: Inhibition of human HCC1954 cell growth in a cell viability assay.

COR-L23 = assay: cells; format: functional, cell-based, Homo sapiens; details: Homo sapiens, COR-L23;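 also: cell viability assay measuring how strongly compounds suppress growth of COR-L23 cells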
Description: SANGER: Inhibition of human COR-L23 cell growth in a cell viability assay.

HN = assay: cells; format: functional, cell-based, Homo sapiens; details: Homo sapiens, HN
Description: SANGER: Inhibition of human HN cell growth in a cell viability assay.

SK-MM-2 = assay: cells; format: functional, cell-based, Homo sapiens; details: Homo sapiens, SK-MM-2;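 also: growth inhibition of human SK-MM-2 cells, read out with a cell viability assay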
Description: SANGER: Inhibition of human SK-MM-2 cell growth in a cell viability assay.

SW13 = assay: cells; format: functional, cell-based, Homo sapiens; details: Homo sapiens, SW13;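 also: IC50 is inhibition of SW13 cell growth, read out with a cell viability assay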
Description: SANGER: Inhibition of human SW13 cell growth in a cell viability assay.

PC-14 = assay: cells; format: functional, cell-based, Homo sapiens; details: Homo sapiens, PC-14;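 also: cell viability assay measuring inhibition of PC-14 cell growth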
Description: SANGER: Inhibition of human PC-14 cell growth in a cell viability assay.

UACC-62 = assay: cells; format: functional, cell-based, Homo sapiens; details: Homo sapiens, UACC-62;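 also: growth inhibition of human UACC-62 cells, read out by a cell viability assay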
Description: SANGER: Inhibition of human UACC-62 cell growth in a cell viability assay.

HO-1-N-1 = assay: cells; format: functional, cell-based, Homo sapiens; details: Homo sapiens, HO-1-N-1;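 also: growth inhibition of human HO-1-N-1 cells, read out with a cell viability assay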
Description: SANGER: Inhibition of human HO-1-N-1 cell growth in a cell viability assay.

DOK = assay: cells; format: functional, cell-based, Homo sapiens; details: Homo sapiens, DOK;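 also: cell viability assay read-out, values reflect inhibition of cell growth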
Description: SANGER: Inhibition of human DOK cell growth in a cell viability assay.

EVSA-T = assay: cells; format: functional, cell-based, Homo sapiens; details: Homo sapiens, EVSA-T;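 also: growth inhibition of EVSA-T cells, read out with a cell viability assay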
Description: SANGER: Inhibition of human EVSA-T cell growth in a cell viability assay.

BFTC-909 = assay: cells; format: functional, cell-based, Homo sapiens; details: Homo sapiens, BFTC-909
Description: SANGER: Inhibition of human BFTC-909 cell growth in a cell viability assay.

SF-295 = assay: cells; format: functional, cell-based, Homo sapiens; details: Homo sapiens, SF-295;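 also: growth inhibition of SF-295 cells, read out with a cell viability assay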
Description: SANGER: Inhibition of human SF295 cell growth in a cell viability assay.

NCI-H1693 = assay: cells; format: functional, cell-based, Homo sapiens; details: Homo sapiens, NCI-H1693;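 also: growth inhibition of the human cell line, read out with a cell viability assay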
Description: SANGER: Inhibition of human NCI-H1693 cell growth in a cell viability assay.

DK-MG = assay: cells; format: functional, cell-based, Homo sapiens; details: Homo sapiens, DK-MG;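 also: growth inhibition of DK-MG cells, read out with a cell viability assay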
Description: SANGER: Inhibition of human DK-MG cell growth in a cell viability assay.

With Nc1ccn([C@@H]2O[C@H](CO)[C@@H](O)C2(F)F)c(=O)n1 [GEMCITABINE] the pIC50 (SAS) was 7.69, the pIC50 (TUR) was 7.49 and the pIC50 (A-431) was greater than 8.40. It also gave a pIC50 (SW1783) greater than 8.40, a pIC50 (MKN-7) of less than 5.99 and a pIC50 (HGC-27) of 8.02. The pIC50 (BC1 cell line) was 7.47, the pIC50 (ChaGo-K-1) was 6.16 and the pIC50 (HuP-T3) was 6.84. For the same compound, the pIC50 (VMRC-RCZ) was 8.81, the pIC50 (UMUC3) was 7.79 and the pIC50 (SW-620) was 8.87. For the same compound, the pIC50 (HuCCT-1) was 7.69, the pIC50 (T47D) was less than 5.99 and the pIC50 (YAPC) was less than 5.99. The pIC50 (GCT) was 6.39, the pIC50 (SK-LU-1) was greater than 8.40 and the pIC50 (SW780) was less than 5.99. The pIC50 (RCM-1) was 6.18, the pIC50 (NY) was 7.52 and the pIC50 (NCI-H520) was 7.73. It also gave a pIC50 (NCI-H187) of less than 5.99, a pIC50 (SR) of 8.67 and a pIC50 (CESS) of 7.63. For the same compound, the pIC50 (SW756) was 7.35, the pIC50 (BOKU) was 6.59 and the pIC50 (KYSE-270) was greater than 8.40. For the same compound, the pIC50 (SK-MES-1) was greater than 8.40, the pIC50 (CMK) was greater than 8.40 and the pIC50 (MEL-HO) was 8.29. For the same compound, the pIC50 (THP-1) was 6.18, the pIC50 (HCC1954) was less than 5.99 and the pIC50 (COR-L23) was 7.85. It also gave a pIC50 (HN) of 7.27, a pIC50 (SK-MM-2) of 6.32 and a pIC50 (SW13) of 6.48. It also gave a pIC50 (PC-14) of 6.69, a pIC50 (UACC-62) of 6.09 and a pIC50 (HO-1-N-1) of 7.62. It also gave a pIC50 (DOK) of less than 5.99, a pIC50 (EVSA-T) of less than 5.99 and a pIC50 (BFTC-909) of 6.84. It also gave a pIC50 (SF-295) of 7.29, a pIC50 (NCI-H1693) of 7.34 and a pIC50 (DK-MG) of less than 5.99.
For O=C(O)c1ccc(-c2c[nH]c3ncc(-c4ccccc4)cc23)cc1C1CCCC1 [GSK-650394], the pIC50 (SAS) was less than 4.80, the pIC50 (TUR) was 5.33 and the pIC50 (A-431) was 5.73. For the same compound, the pIC50 (SW1783) was less than 4.80, the pIC50 (MKN-7) was less than 4.80 and the pIC50 (HGC-27) was 5.88. The pIC50 (BC1 cell line) was 5.60, the pIC50 (ChaGo-K-1) was less than 4.80 and the pIC50 (HuP-T3) was less than 4.80. It also gave a pIC50 (VMRC-RCZ) of less than 4.80, a pIC50 (UMUC3) of 5.02 and a pIC50 (SW-620) of 5.71. For the same compound, the pIC50 (HuCCT-1) was less than 4.80, the pIC50 (T47D) was less than 4.80 and the pIC50 (YAPC) was less than 4.80. For the same compound, the pIC50 (GCT) was less than 4.80, the pIC50 (SK-LU-1) was 5.40 and the pIC50 (SW780) was less than 4.80. It also gave a pIC50 (RCM-1) of less than 4.80, a pIC50 (NY) of less than 4.80 and a pIC50 (NCI-H520) of less than 4.80. For the same compound, the pIC50 (NCI-H187) was less than 4.80, the pIC50 (SR) was less than 4.80 and the pIC50 (CESS) was less than 4.80. For the same compound, the pIC50 (SW756) was less than 4.80, the pIC50 (BOKU) was less than 4.80 and the pIC50 (KYSE-270) was 5.62. For the same compound, the pIC50 (SK-MES-1) was 4.80, the pIC50 (CMK) was 5.08 and the pIC50 (MEL-HO) was less than 4.80. For the same compound, the pIC50 (THP-1) was less than 4.80, the pIC50 (HCC1954) was less than 4.80 and the pIC50 (COR-L23) was 5.32. It also gave a pIC50 (HN) of less than 4.80, a pIC50 (SK-MM-2) of less than 4.80 and a pIC50 (SW13) of less than 4.80. It also gave a pIC50 (PC-14) of less than 4.80, a pIC50 (UACC-62) of less than 4.80 and a pIC50 (HO-1-N-1) of less than 4.80. The pIC50 (DOK) was less than 4.80, the pIC50 (EVSA-T) was less than 4.80 and the pIC50 (BFTC-909) was 4.83. For the same compound, the pIC50 (SF-295) was 5.12, the pIC50 (NCI-H1693) was less than 4.80 and the pIC50 (DK-MG) was less than 4.80.
